Test systems include HOP-92; NCI-H23; SK-OV-3; OVCAR-3; DU-145; Malme-3M; CCRF-CEM; HT-29; SW-620; SF-539; IGROV-1; OVCAR-8; SF-268; SK-MEL-2; UACC-257; HCT-15; EKVX; SR; HOP-62; SNB-75.
Experiment in all cases: NCI tumour cell line growth inhibition, 48 h

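96-well plates; 48 h exposure; 5 concentrations. Endpoints by linear interpolation between flanking doses. Not reached: highest tested concentration assigned. The concentration for 50% growth inhibition is given as GI50.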 Active and inactive are the calls of the source. No stated cut-off is given here; in the data, active = GI50 up to about 1.1 µM and inactive = higher. Bounds are passed on as bounds.

Regarding `N#CC(NCCc1ccccc1)c1ccc(C(C#N)NCCc2ccccc2)cc1` (stereo not given), the GI50 with HOP-92 was > 100 µM (inactive); in the assay with NCI-H23 it was 30.7 µM (inactive); in the assay on SK-OV-3, > 100 µM (inactive); in the assay with OVCAR-3, > 100 µM (inactive); in the assay on DU-145, > 100 µM (inactive); in the assay with Malme-3M, > 100 µM (inactive). The GI50 in the assay with CCRF-CEM was 17.9 µM (inactive); in the assay on HT-29 it was 49.2 µM (inactive); with SW-620, 32.8 µM (inactive); in the assay with SF-539, > 100 µM (inactive); in the assay with IGROV-1, > 100 µM (inactive); with OVCAR-8 it was 73.6 µM (inactive). Moreover, the GI50 was 69.3 µM (inactive) with SF-268; > 100 µM (inactive) with SK-MEL-2; > 100 µM (inactive) in the assay with UACC-257; more than 100 µM in the assay with HCT-15; > 100 µM (inactive) with EKVX.

For `COC(=O)/C=C(/OC)[C@H](C)[C@H](/C=C/c1csc(-c2csc(C(C)C)n2)n1)OC`, the GI50 in the assay on HOP-92 is 6.07 µM (inactive); with NCI-H23 it was 0.569 µM (active); with SR, 0.0929 µM (active); in the assay on SK-OV-3, > 62.1 µM (inactive); in the assay on OVCAR-3, 0.35 µM (active); in the assay with Malme-3M it was 18.8 µM (inactive). The GI50 in the assay with CCRF-CEM is 18.2 µM (inactive); with HT-29 it was 0.29 µM (active); in the assay on SW-620, 0.741 µM (active); in the assay with SF-539, 8.79 µM (inactive); in the assay on IGROV-1 it was 0.426 µM (active); in the assay with HOP-62, > 43.3 µM (inactive). Moreover, the GI50 is 0.785 µM (active) in the assay with OVCAR-8; > 100 µM (inactive) in the assay with SNB-75; 0.647 µM (active) with SF-268; 28 µM (inactive) in the assay with SK-MEL-2; 0.455 µM (active) with UACC-257; 0.0975 µM with HCT-15. In the assay with EKVX, the GI50 was 0.721 µM (active).

Turning to `COC1=CC(=O)[C@]2(C)[C@H](C1=O)C(C)[C@H]2c1ccc(OC)cc1` (stereo not given in full), the GI50 in the assay on HOP-92, in the assay with NCI-H23, in the assay on SR, in the assay with SK-OV-3, in the assay with OVCAR-3 and in the assay with Malme-3M was > 100 µM (inactive) each time. Further, the GI50 in the assay on CCRF-CEM, in the assay on HT-29, with SW-620, with SF-539, in the assay on IGROV-1 and with HOP-62 was > 100 µM (inactive) in each case. Besides, the GI50 with OVCAR-8 was > 100 µM (inactive); in the assay with SNB-75, > 100 µM (inactive); in the assay with SF-268, > 100 µM (inactive); with SK-MEL-2 it was > 100 µM (inactive); in the assay on UACC-257 it was 91.6 µM (inactive); in the assay on HCT-15, more than 100 µM. The GI50 with EKVX was > 100 µM (inactive).

`O=C(Nc1ccc(F)cc1)C(=O)C(C1OC(=O)c2ccccc21)[N+](=O)[O-]` (stereo not given): the GI50 with HOP-92, with NCI-H23, in the assay on SR, with SK-OV-3, with OVCAR-3 and in the assay with Malme-3M was > 100 µM (inactive) throughout. Moreover, the GI50 in the assay with CCRF-CEM, in the assay with HT-29, in the assay on SW-620, in the assay on SF-539, in the assay with IGROV-1 and in the assay on HOP-62 was > 100 µM (inactive) each time. In addition, the GI50 in the assay with OVCAR-8 was > 100 µM (inactive); with SNB-75 it was > 100 µM (inactive); in the assay with SF-268, > 100 µM (inactive); in the assay with SK-MEL-2, > 100 µM (inactive); in the assay with UACC-257 it was > 100 µM (inactive); in the assay on HCT-15 it was more than 100 µM. Besides, in the assay on EKVX, the GI50 was > 100 µM (inactive).

In the case of `Cc1ccc(NC(=O)/C(=N\NC(N)=S)C(C#N)c2ccccc2C)cc1C` (stereo not given), the GI50 in the assay on HOP-92, with NCI-H23, with SR, with SK-OV-3, in the assay on OVCAR-3 and in the assay with Malme-3M was > 100 µM (inactive) in each case. Moreover, the GI50 with CCRF-CEM, with HT-29, with SW-620, with SF-539, in the assay on IGROV-1 and in the assay with HOP-62 was > 100 µM (inactive) each time. The GI50 in the assay with OVCAR-8 was > 100 µM (inactive); with SNB-75, 66.5 µM (inactive); in the assay on SF-268, > 100 µM (inactive); in the assay on SK-MEL-2 it was > 100 µM (inactive); in the assay with UACC-257 it was > 100 µM (inactive); with HCT-15 it was more than 100 µM. Moreover, the GI50 in the assay with EKVX was > 100 µM (inactive).

With `COc1cccc([C@@H]2C/C(=N\NC(=O)C(=O)N[C@@H](C)c3ccccc3)c3ccccc3N2)c1`, the GI50 is 30.5 µM (inactive) with HOP-92; > 100 µM (inactive) in the assay with SK-OV-3; > 100 µM (inactive) in the assay on OVCAR-3; > 100 µM (inactive) in the assay with DU-145; > 100 µM (inactive) in the assay on CCRF-CEM; 89.5 µM (inactive) with SW-620. Further, the GI50 with SF-539 was 13.1 µM (inactive); with HOP-62, 76.6 µM (inactive); in the assay with SNB-75, 21.3 µM (inactive); in the assay on SF-268 it was 71 µM (inactive); in the assay with SK-MEL-2, > 100 µM (inactive); in the assay with UACC-257 it was 82 µM (inactive). In addition, the values for the GI50 in the assay on HCT-15 and with EKVX were more than 100 µM and 61.4 µM (inactive), respectively.

Consider `C[Si](C)(C)/N=C1\N2C(=NC1(C(F)(F)F)C(F)(F)F)Sc1ccccc12`, for which the GI50 in the assay on HOP-92 is 29.9 µM (inactive); with NCI-H23, > 50 µM (inactive); in the assay with SR, > 50 µM (inactive); in the assay on SK-OV-3 it was > 50 µM (inactive); in the assay with OVCAR-3 it was > 50 µM (inactive); in the assay with Malme-3M, > 50 µM (inactive). Moreover, the GI50 in the assay with CCRF-CEM, in the assay on HT-29, with SW-620, in the assay on SF-539, with IGROV-1 and with HOP-62 was > 50 µM (inactive) in each case. Besides, the GI50 with OVCAR-8 is > 50 µM (inactive); in the assay on SNB-75, > 50 µM (inactive); with SF-268, > 50 µM (inactive); in the assay with SK-MEL-2, > 50 µM (inactive); in the assay on UACC-257 it was > 50 µM (inactive); with HCT-15, more than 50 µM. In the assay with EKVX, the GI50 is > 50 µM (inactive).

In the case of `CC1CC(=O)c2c(ccc3c2C(=O)c2cccc(O)c2C3=O)C1` (stereo not given), the GI50 with HOP-92 was 1.79 µM (inactive); in the assay on NCI-H23, 5.26 µM (inactive); in the assay with SR, 3.54 µM (inactive); with SK-OV-3, 19.3 µM (inactive); in the assay on OVCAR-3, 3.46 µM (inactive); in the assay with Malme-3M, 6.93 µM (inactive). For the same molecule, the GI50 with CCRF-CEM is 1.95 µM (inactive); in the assay with HT-29, 3.74 µM (inactive); in the assay on SW-620, 4.25 µM (inactive); with SF-539 it was 14.8 µM (inactive); with IGROV-1, > 10 µM (inactive); in the assay with HOP-62 it was > 10 µM (inactive). In addition, the GI50 was 2.56 µM (inactive) in the assay with OVCAR-8; 10.4 µM (inactive) in the assay with SNB-75; 10.4 µM (inactive) in the assay on SF-268; 8.81 µM (inactive) with SK-MEL-2; 5.89 µM (inactive) in the assay with UACC-257; 9.14 µM in the assay with HCT-15. For the same molecule, the GI50 in the assay on EKVX is 14.6 µM (inactive).

These data come from ChEMBL document CHEMBL1201862, “PubChem BioAssay data set” (2004).
